From ChEMBL document CHEMBL2407044, “Synthesis, Antiplasmodial Activity, and β-Hematin Inhibition of Hydroxypyridone-Chloroquine Hybrids” (ACS Med Chem Lett, 2013)
Activity calls are given as the source filed them. No cut-off for these calls is given here.

Tests used:
[1] = Inhibition of beta-hematin formation after 60 mins relative to beta-hematin; type: functional
Plasmodium falciparum [2] = test: Antiplasmodial activity against chloroquine-resistant Plasmodium falciparum W2 assessed as parasite survival after 2 days by YOYO-1 staining-based flow cytometric analysis; type: functional, organism-based; details: W2, 48 h
KB = test: Cytotoxicity against human KB cells after 72 hrs by Alamar blue assay; type: cell-based
Plasmodium falciparum [3] = test: Antiplasmodial activity against chloroquine-resistant Plasmodium falciparum K1 assessed as parasite growth inhibition after 24 hrs by [3H]-hypoxathine incorporation assay; type: functional, organism-based
Plasmodium falciparum [4] = test: Antiplasmodial activity against chloroquine-sensitive Plasmodium falciparum 3D7 assessed as parasite growth inhibition after 24 hrs by [3H]-hypoxathine incorporation assay; type: functional, organism-based
[5] = Inhibition of beta-hematin formation at 10 times parental IC50 after 60 mins; type: functional

Structure (SMILES) | IC50 [1] [equiv] | IC50 (Plasmodium falciparum [2]) [µM] | IC50 (KB; Homo sapiens, KB, 72 h) [µM] | IC50 (Plasmodium falciparum [3]; Plasmodium falciparum, K1) [µM] | IC50 (Plasmodium falciparum [4]) [µM] | inhibition [5] | IC50 (KB; kb) [µM] | IC50 (Plasmodium falciparum [3]) [µM]
CCc1c(OC)c(=O)ccn1CCCCCCNc1ccnc2cc(Cl)ccc12 | 0.47 | 0.22 |  |  |  |  |  | 
Cc1c(OCc2ccccc2)c(=O)ccn1CCCCCCNc1ccnc2cc(Cl)ccc12 | 0.25 | 0.39 | 158 | 4.38 | 35.7 |  |  | 
COc1c(C)n(CCCCCCNc2ccnc3cc(Cl)ccc23)ccc1=O | 1.07 | 0.09 | 47 | 2.8 | 0.13 |  |  | 
CCCCCCn1ccc(=O)c(OCc2ccccc2)c1C |  |  |  |  |  | inactive |  | 
COc1cc([C@@H]2c3cc4c(cc3[C@H](O)[C@H]3COC(=O)[C@H]23)OCO4)cc(OC)c1OC [PODOFILOX] |  |  | 0.0007 |  |  |  |  | 
Cc1c(OCc2ccccc2)c(=O)ccn1CCCNc1ccnc2cc(Cl)ccc12 | 0.49 | 2.15 | 67 | 3.57 | 0.28 |  |  | 
COc1c(C)n(CCCCNc2ccnc3cc(Cl)ccc23)ccc1=O | 0.75 | 0.76 | 27 | 0.22 | 0.07 |  |  | 
CCc1c(OCc2ccccc2)c(=O)ccn1CCCNc1ccnc2cc(Cl)ccc12 | 0.41 | 2.32 | 15 | 71.6 | 0.12 |  |  | 
Cc1c(OCc2ccccc2)c(=O)ccn1C(C)C |  |  |  |  |  | inactive |  | 
CCc1c(OCc2ccccc2)c(=O)ccn1CCCCCCNc1ccnc2cc(Cl)ccc12 [listing 1 of 2 here] | 0.16 | 0.02 |  |  |  |  | 4 | 0.08
CCc1c(O)c(=O)ccn1CCCCNc1ccnc2cc(Cl)ccc12 | 0.98 | 0.16 | 76 | 0.27 | 0.05 |  |  | 
Cc1c(OCc2ccccc2)c(=O)ccn1CCNc1ccnc2cc(Cl)ccc12 | 0.93 | 9.93 | 54 | 3.15 | 0.49 |  |  | 
Cc1c(OCc2ccccc2)c(=O)ccn1C |  |  |  |  |  | inactive |  | 
CCc1c(OC)c(=O)ccn1CCCCNc1ccnc2cc(Cl)ccc12 | 1.71 | 0.21 |  |  |  |  |  | 
CCc1c(OCc2ccccc2)c(=O)ccn1CCCCNc1ccnc2cc(Cl)ccc12 | 0.19 | 0.1 | 9 | 0.13 | 0.004 |  |  | 
CCc1c(OCc2ccccc2)c(=O)ccn1CCNc1ccnc2cc(Cl)ccc12 | 0.5 | 2.59 | 51 | 8.43 | 0.95 |  |  | 
Cc1c(OCc2ccccc2)c(=O)ccn1CCCCNc1ccnc2cc(Cl)ccc12 | 0.27 | 1.12 | 119 | 2.2 | 0.05 |  |  | 
Cc1c(O)c(=O)ccn1CCCCNc1ccnc2cc(Cl)ccc12 | 0.66 | 0.08 | 185 | 0.07 | 0.03 |  |  | 
Cc1c(O)c(=O)ccn1CCNc1ccnc2cc(Cl)ccc12 | 2.9 | 0.28 |  | 32.6 | 10.8 |  |  | 
CCCCCCCCn1ccc(=O)c(O)c1C |  |  |  | 1.8 | 2.38 |  |  | 
Cc1c(O)c(=O)ccn1CCCCCCNc1ccnc2cc(Cl)ccc12 | 0.18 | 0.07 | 4 | 0.16 | 0.39 |  |  | 
CCc1c(O)c(=O)ccn1CCCNc1ccnc2cc(Cl)ccc12 | 1.3 | 0.54 | 55 | 0.38 | 0.12 |  |  | 
CCc1c(O)c(=O)ccn1CCCCCCNc1ccnc2cc(Cl)ccc12 | 0.49 | 0.09 | 44 | 0.61 | 0.08 |  |  | 
CCc1c(O)c(=O)ccn1CCNc1ccnc2cc(Cl)ccc12 | 1.1 | 1.24 |  | 0.89 | 0.4 |  |  | 
CCN(CC)CCCC(C)Nc1ccnc2cc(Cl)ccc12 (stereo not drawn) [CHLOROQUINE] | 1.9 |  | 34 |  |  |  |  | 
CCc1c(OCc2ccccc2)c(=O)ccn1CCCCCCNc1ccnc2cc(Cl)ccc12 [listing 2 of 2 here] |  |  | 7 | 0.1 | 0.01 |  |  | 
CCCCCCCCn1ccc(=O)c(OCc2ccccc2)c1C |  |  |  |  |  | inactive |  | 
